Experiment [1] concerns ischemic reperfusion injury in mouse heart. The format is in vivo, C57B1/6J mice. To be noted: 0.4 mg/kg tail vein 5 min before reperfusion; 4 h reperfusion; vehicle 16.5±1.2%; not statistically significant. The procedure:
Acute GsMTx4-D treatment: All animal protocols in this study were approved by the Institutional Animal Care and Use Committee of the University at Buffalo-State University of New York. C57B1/6J mice were anesthetized with 80 mg/kg of sodium pentobarbital (Sigma, St. Louis, Mo.) via intraperitoneal injection (IP), intubated and ventilated with a respirator (Harvard apparatus, Holliston, Mass., USA) 17. Upon absence of a pedal reflex, surgery was performed under a stereomicroscope. Core body temperature was maintained at 37° C. with a heating pad. After a left lateral thoracotomy, the left anterior descending coronary artery (LAD) was occluded just underneath the left atrium for 20 min with an 8-0 nylon suture. […] A small piece of gauze was used to prevent arterial injury. After 20 min the ligature was removed and the tissue was reperfused for up to 4 h before euthanizing. Three different doses of GsMTx4-D (0.1, 1, 10 mg/kg), verapamil (0.4 mg/kg) or vehicle (saline 50 μL) were administered via tail vein injection 5 min before reperfusion (during induced ischemia). ECGs confirmed the hallmark ischemic ST segment elevation during coronary occlusion (AD Instruments, Colorado Springs, CO, USA). Each group included 5 independent experiments. At the conclusion of the study, mice were euthanized by IP injection of 270 mg/kg pentobarbital. GsMTx4-D pretreatment: To evaluate the effect of GsMTx4-D pretreatment, GsMTx4-D (50 mg/kg) or vehicle (saline 50 μL) were administered via IP injection once daily for 2 days prior to surgery. Ischemia was then elicited with the same 20 min coronary occlusion followed by 24 h reperfusion. Following reperfusion, the chest was closed in layers. A drop of lidocaine was put on the suture site and the mouse was slowly weaned off the ventilator when they resumed spontaneous breathing. The mouse was returned to its cage and kept warm and medicated for pain (buprenorphine). Each group included 5 independent experiments.
To measure infarct size, hearts were harvested and excised for dual staining at the conclusion of reperfusion. The non-necrotic tissue in the ischemic region was stained red with 2,3,5- triphenyltetrazolium (TTC) and non-ischemic regions were stained blue with Evans blue. The hearts were fixed and sectioned into 1 mm slices, photographed with a Lexica MZ95 microscope and analyzed with NIH ImageJ software (http://imagej.nih.gov/ij/) 19. The infarct size was calculated as the ratio of the percentage of myocardial necrosis to the ischemic Area At Risk (AAR).
To test whether GsMTx4-D protected the heart against reperfusion injury, we first tested three different doses of the peptide. The positive control was verapamil, a voltage-gated calcium channel inhibitor with established cardioprotective effects on IRI. C57B1/6 mice were subjected to 20 min occlusion of the LAD followed by 4 hours of reperfusion. Three different concentrations of GsMTx4-D (0.1, 1 and 10 mg/kg), verapamil (0.4 mg/kg), or vehicle (saline) were administered through tail vein injection 5 min before reperfusion. […] At the conclusion of reperfusion, the hearts were stained with TTC and Evans Blue (FIG. 2A). […] The verapamil group also had lower infarction size (14.0±0.4%), but the difference wasn't statistically significant. […] To evaluate whether pretreatment with GsMTx4-D could also protect the heart from I/R injury, GsMTx4-D (50 mg/kg) or vehicle (saline 50 μL) were administered daily via IP injection, for 2 days prior to I/R surgery. As before, ischemia was induced from 20 min LAD occlusion, but reperfusion was allowed to continue for 24 hrs. The chest was closed in layers, and animals were weaned off the ventilator when they resumed spontaneous breathing. […] The ratios of AAR to total myocardial area between the two groups were equal as determined by TTC and Evans Blue staining (FIG. 3A and B). […]

For experiment [2], the system named is I/R induced arrhythmias in mouse heart. Kind of experiment: Heart rhythm analysis (ECG) during reperfusion, I/R induced arrhythmia. Format: in vivo, C57B1/6J mice. The note with it: 0.4 mg/kg IV 5 min before reperfusion; vehicle 14.9±4.5; not significantly different. The procedure:
During reperfusion we continuously recorded ECGs, from which mean heart rate, PR, QRS, and QT intervals were derived for each animal. We evaluated the incidence of arrhythmias by counting the incidences of arrhythmias including ventricular and supraventricular premature beats by summing the number of episodes based on limb lead recordings for 15 min after reperfusion. Ventricular premature beats are considered more severe. Each group contained 5 to 7 independent experiments (vehicle n=7, verapamil n=6, GsMTx4-D 0.1mg/kg n=5, 1 mg/kg n=6 and 10 mg/kg n=5).
Heart rate and rhythm were monitored by ECG to confirm the hallmark ischemic ST-segment elevation during coronary occlusion, and the gradually increasing inversion of the T-wave during reperfusion (FIG. 4A). Since generation of arrhythmias is a good indicator of the level of I/R damage, we counted ventricular and supraventricular premature beats occurring within 15 min of reperfusion (FIG. 4B). No ventricular tachycardia was observed during 20 min ischemia and 15 min reperfusion in the mouse heart. […] Considering that ventricular premature beats are indicative of more severe damage, the incidence of this specific arrhythmia was analyzed separately (FIG. 4 D). […] There was no difference in mean heart rate before ischemia (FIG. 4E). […] There was no difference in PR, QRS or QT intervals after treatment in all groups (data not shown).

These results are taken from patent US20170072012A1, “USE OF GSMTX4 TO REDUCE ISCHEMIA REPERFUSION INJURY” (priority 2014, published 2017).

As to `COc1ccc(CCN(C)CCCC(C#N)(c2ccc(OC)c(OC)c2)C(C)C)cc1OC` (centres unmarked) [verapamil, reference compound], the “infarction size (infarct area / AAR)” value in experiment [1] is given as 14.0±0.4%. Besides, the “total incidence of arrhythmias (ventricular and supraventricular premature beats)” value in experiment [2] is recorded as 5.7±1.2 incidence/15 min reperfusion.
